Reference: patent US11771685B2, “Compounds for the treatment of neurological or mitochondrial diseases” (MUSC FOUNDATION FOR RESEARCH DEVELOPMENT, priority 2018, dated 2023)
Where two headings read alike, the source gives them in different places.

Experiments:
[1] = Liver microsome stability; format: in vitro ADME; details: in vitro
[2] = Rotarod neurotoxicity test in mice; format: in vivo, mouse; details: for Rotarod (Tox) N/T, mice that fell off: 1 hr, 32 mA study
[3] = In vivo pharmacokinetics in CD-1 mice; design: species or system mouse; details: for Vd: read-out: Vss
Description: PK studies on 3 and 25 were carried out in CD-1 mice. Three males were dosed via oral gavage needle for oral administration at 20 mg/kg (10 mL/kg) or via intravenous administration at 5 mg/kg (10 mL/kg). Blood samples were taken at time intervals between 5 min and 24 hr from each animal.
The PK studies of 1 were performed by WuXi AppTec and PK studies of 3 and 25 were performed by Touchstone Biosciences (Peng et al., 2006b; Peng et al., 2001; Peng et al., 2006a; Peng et al., 2009). Male CD-1 mice were fed a standard laboratory rodent diet and housed in individual cages on a 12 hr light and 12 hr dark cycle with room temperature maintained at 22±3° C. and relative humidity at 50±20%. Animals were typically fasted overnight before dosing, with food returned after the 6 hr blood samples were obtained. Water was provided ad libitum throughout the study. The dosing solution of each test compound was prepared in a desired oral or intravenous formulation. Three to four animals were dosed via gavage needle for oral administration at 10-20 mg/kg (10-20 mL/kg) or via tail vein injection for IV administration at 2-5 mg/kg (2-5 mL/kg). […] Fluid replacement (1.5 mL of 0.9% NaCl injection, USP) was administered subcutaneously once after the 2 hr blood sampling. Blood samples were collected in BD Microtainer tubes coated with anticoagulant, placed on ice, and within 30 min, centrifuged at 15,000 g for 5 min to obtain plasma samples. All plasma samples were stored at −70° C. until analysis.
Plasma samples were prepared as follows. Three volumes of acetonitrile containing internal standard was added to one volume of plasma to precipitate proteins. Samples were centrifuged (3000 g for 10 min) and supernatant removed for analysis by LC-MS/MS. Calibration standards and quality controls were made by preparation of a 1 mg/mL stock solution and subsequently a series of working solutions in methanol:water (1:1, v/v) which were spiked into blank plasma to yield a series of calibration standard samples in the range of 1.0 ng/mL to 10 μg/mL and quality control samples at three concentration levels (low, middle and high). All incurred PK/PD plasma samples were treated identically to the calibration standards and quality control samples. LC-MS-MS analysis was performed utilizing multiple reaction monitoring for detection of characteristic ions for each drug candidate, additional related analytes and internal standard.
Plasma concentrations were measured as described above to determine a concentration vs. time profile. The area under the plasma concentration vs time curve (AUC) was calculated using the linear trapezoidal method. Fitting of the data to obtain pharmacokinetic parameters was carried out using non-compartmental analysis. Key PK parameters reported following intravenous administration are as follows: terminal half-life t1/2, initial plasma concentration C0, area under the plasma concentration vs. time curve AUC, volume of distribution at steady-state Vss, total plasma clearance CLp, and mean residence time MRT. Key PK parameters reported following extravascular administration are as follows: terminal half-life t1/2, maximum plasma concentration Cmax, time to reach maximum plasma concentration tmax, area under the plasma concentration vs. time curve AUC, mean residence time MRT, and bioavailability F. All parameters are expressed for individual animals as well as mean, standard deviation, and coefficient of variation.

[4] = Brain tissue binding; format: in vitro ADME; details: in vitro, read-out: Brain tissue binding (% bound)
[5] = system: Zebrafish larvae; assay: In vivo toxicology in zebrafish larvae
Description: Zebrafish larvae, 7 days post-fertilization (dpf), were exposed to compounds at 20, 15, 10, and 5 μM, six larvae per compound. Animals were observed 1, 5, and 24 hr after dosing for overt toxicity (altered survival, morbidity, morphological deformity). Heart rate, behavior, and startle response were monitored at each time point.
Zebrafish (AB strain) were obtained from the Zebrafish International Resource Center (supported by P40 RR012546 from NIH—NCRR). Zebrafish were maintained and crossed according to standard methods (Westerfield, 2000). Fertilized eggs were collected and placed in E3 embryo medium and positioned in an incubator set at 28.5° C. with a 14/10-hr light/dark cycle (Kimmel et al., 1995). To determine the lethal dose of each compound, 96-well plates containing one zebrafish (7 days post-fertilization, dpf) per well in 100 μL of tank water were used. 100 μL of each compound (0.5-15 μM) was added to each well for 12 animals (one row) for a final volume of 200 μL. One row of larvae was used as dimethyl sulfoxide (DMSO)-only controls. […] All zebrafish studies were approved by the Medical University of South Carolina Institutional Animal Care and Use Committee (#180278) and performed in accordance with the guidelines.
Using a 96-well plate, 7 dpf zebrafish were placed one per well with 100 μL of tank water. 100 μL of each compound was then added to each well for 12 animals (one row) for a final volume of 200 μL. One row of zebrafish larvae was used as DMSO only controls.

[6] = intraperitoneal 20 mg/kg, 5% DMSO: 95% neobee
[7] = intravenous 5 mg/kg, 20% DMA: 40% PEG300: 40% H2O
[8] = male, CD-1, mouse, plasma, iv, 5 mg/kg, intravenous 5 mg/kg, 20% DMA: 40% PEG300: 40% H2O
[9] = male, CD-1, mouse, plasma, po, 20 mg/kg, oral 20 mg/kg, 5% DMSO: 95% Neobee
[10] = oral 20 mg/kg, 5% DMSO: 95% Neobee
[11] = intravenous, 3 and 25 at 5 mg/kg, 5 mg/kg
[12] = male, CD-1, mouse, plasma, iv, 5 mg/kg, 3 and 25 at 5 mg/kg
[13] = male, CD-1, mouse, plasma, po, 20 mg/kg, oral 20 mg/kg, 20% DMA-40% PEG300-40% H2O
[14] = male, CD-1, mouse, plasma, po, 20 mg/kg, oral 20 mg/kg, suspension 1% Tween 80:1% carboxymethylcellulose in water
[15] = oral 20 mg/kg, 20% DMA-40% PEG300-40% H2O

With `CC(C)CCNC1=CC(=O)c2ccccc2C1=O` [Compound 17, 2-(Isopentylamino)naphthalene-1,4-dione] the “Liver microsome stability (t1/2)” value ([1]; listed as NT-102) was >1 h, the half-life ([1]; liver microsomes, read-out: Liver microsome stability (t1/2)) was > 60 min and the “Rotarod (Tox) N/T, mice that fell off” value ([2]; 50 mg/kg) was 0/8. The “Rotarod (Tox) N/T, mice that fell off” value ([2]; 100 mg/kg) was 0/8, the “Rotarod (Tox) N/T, mice that fell off” value ([2]; 200 mg/kg) was 1/8 and the “Rotarod (Tox) N/T, mice that fell off” value ([2]; 300 mg/kg) was 3/8. For the same molecule, the “Neurotoxicity (Rotorod assay), animals showing toxicity” value ([2]; 5% DMSO: 95% Neobee) was 0/72 showed toxicity, the T1/2 [3, 6] was 3.38 h and the tlast [3, 6] was 24 h. The Clast [3, 7] was 0.154 ng/mL, the T1/2 [3, 7] was 4.47 h and the AUC(0-t) ([3]; male, CD-1, mouse, plasma, ip, 20 mg/kg, intraperitoneal 20 mg/kg, 5% DMSO: 95% neobee) was 1720 ng·h/mL. The AUC(0-inf) [3, 8] was 637 ng·h/mL, the MRT inf [3, 8] was 0.874 h and the clearance ([3]; male, CD-1, mouse, plasma, iv, 5 mg/kg, intravenous 5 mg/kg, 20% DMA: 40% PEG300: 40% H2O, read-out: CLp) was 131 mL/min/kg. It also gave a Vd [3, 8] of 6.89 L/kg, an AUC(0-inf) [3, 9] of 914 ng·h/mL and an MRT inf [3, 9] of 2.5 h. The Tmax [3, 9] was 15 min, the concentration at 24 hr ([3]; male, CD-1, mouse, plasma, intraperitoneal 20 mg/kg, 5% DMSO: 95% neobee, read-out: Clast) was 1.95 ng/mL and the C0 ([3]; male, CD-1, mouse, plasma, intravenous 5 mg/kg, 20% DMA: 40% PEG300: 40% H2O) was 1910 ng/mL. It also gave a concentration at 24 hr ([3]; male, CD-1, mouse, plasma, oral 20 mg/kg, 5% DMSO: 95% Neobee, read-out: Clast) of 1.43 ng/mL, a Cmax [3, 10] of 1025 ng/mL and an F [3, 10] of 35.9%. It also gave a t1/2 [3, 10] of 5.28 h, a tlast [3, 10] of 24 h and a fraction unbound [4] of 0.02 to 0.03.
For `CC(C)CCOC1=CC(=O)c2ccccc2C1=O` [Compound 25, 2-(Isopentyloxy)naphthalene-1,4-dione], the AUCinf/D ([3]; intravenous, 5 mg/kg) was 242 h·(ng/mL)/(mg/kg), the tlast ([3]; intravenous, 5 mg/kg) was 24 h and the CL [3, 11] was 69 mL/min/kg. For the same molecule, the Vss [3, 11] was 13 L/kg, the clearance ([3]; male, CD-1, mouse, plasma, iv, 5 mg/kg, intravenous, 3 and 25 at 5 mg/kg, read-out: CL) was 68.8 mL/min/kg and the Vd ([3]; male, CD-1, mouse, plasma, iv, 5 mg/kg, intravenous, 3 and 25 at 5 mg/kg) was 13.2 L/kg. It also gave an AUC(0-inf) [3, 12] of 1210 ng·h/mL, an AUC(0-t) [3, 12] of 1200 ng·h/mL and an MRT inf [3, 12] of 3.2 h. For the same molecule, the half-life [3, 12] was 259 min, the AUC(0-inf) [3, 13] was 11500 ng·h/mL and the AUC(0-t) [3, 13] was 7360 ng·h/mL. The MRT inf [3, 13] was 7.84 h, the Tmax [3, 13] was 20 min and the half-life [3, 13] was 334 min. The Cmax ([3]; male, CD-1, mouse, plasma, po, 20 mg/kg, oral 20 mg/kg, 20% DMA-40% PEG300-40% H2O, read-out: Cmax) was 2080 ng/mL, the AUC(0-inf) [3, 14] was 1950 ng·h/mL and the half-life [3, 14] was 209 min. For the same molecule, the Cmax ([3]; male, CD-1, mouse, plasma, po, 20 mg/kg, oral 20 mg/kg, suspension 1% Tween 80:1% carboxymethylcellulose in water, read-out: Cmax) was 282 ng/mL, the bioavailability ([3]; male, CD-1, mouse, plasma, po, 20 mg/kg, oral 20 mg/kg, suspension 1% Tween 80:1% carboxymethylcellulose in water, read-out: oral bioavailability (F)) was 40.3% and the concentration at 24 hr ([3]; male, CD-1, mouse, plasma, intravenous, 5 mg/kg, read-out: Clast) was 2.26 ng/mL. The C0 ([3]; male, CD-1, mouse, plasma, intravenous, 3 and 25 at 5 mg/kg) was 1600 ng/mL, the concentration at 8 hr ([3]; male, CD-1, mouse, plasma, oral 20 mg/kg, 20% DMA-40% PEG300-40% H2O, 8 hr post-dose, read-out: Clast) was 531 ng/mL and the “decrease of Cmax and AUC, suspension vs solution formulation” value ([3]; oral 20 mg/kg) was 6-7 fold. The AUCinf/D [3, 15] was 576 h·(ng/mL)/(mg/kg), the Cmax/D [3, 15] was 104 (ng/mL)/(mg/kg) and the tlast [3, 15] was 8 h. For the same molecule, the T1/2 ([3]; oral 20 mg/kg, 20% DMA-40% PEG300-40% H2O, 20 mg/kg) was 5.6 h, the “oral bioavailability (F)” value ([3]; oral 20 mg/kg, suspension 1% Tween 80:1% carboxymethylcellulose in water, 20 mg/kg) was 40% and the survival ([5]; 24 hr, highest concentrations) was “⅔”. For the same molecule, the “concentration with no overt toxicity” value ([5]; AB, zebrafish, in vivo) was ≤ 10 µM.
